According to the NIST ThermoML archive (doi:10.1021/je800377b):
Numbers after ± are expanded uncertainties.

Settings: Liquid

Row | SMILES | vapor or sublimation pressure (273.15 K) | vapor or sublimation pressure (283.15 K) | vapor or sublimation pressure (293.15 K) | vapor or sublimation pressure (303.15 K) | vapor or sublimation pressure (313.15 K) | vapor or sublimation pressure (323.15 K)
1 | CCCC [butane] | 103 ± 2 kPa | 149 ± 3 kPa | 208 ± 3 kPa | 284 ± 4 kPa | 378 ± 5 kPa | 493 ± 6 kPa
2 | CCC [propane] | 476 ± 6 kPa | 633 ± 8 kPa | 833 ± 10 kPa | 1079 ± 13 kPa | 1366 ± 17 kPa | 1709 ± 21 kPa
